Test results published in patent US10500261B2 (priority 2014, dated 2019).
“Also recorded” adds a separate entry of the source.

What was measured:
[1] = system: HS23/36 CPS conjugate antisera; assay type: binding, rabbit
[2] = system: HS4 CPS conjugate antisera; assay type: binding, rabbit
[3] = system: HS1 CPS conjugate antisera; assay type: binding, mouse
[4] = system: HS3 CPS conjugate antisera; assay type: binding, mouse

## COc1ccc(O[C@H]2O[C@H](CO)[C@H](O)[C@H](O)[C@H]2O)cc1 [α-D-Gal-(1-OMP, 4-methoxyphenyl-α-D-galactopyranoside, reference compound]
[1]
  recognition by HS23/36 CPS-CRM197 conjugate antiserum: No reaction was observed

## COc1ccc(O[C@H]2O[C@H](COP(N)(=O)OC)[C@H](O)[C@H](O)[C@H]2O)cc1 (stereo partly drawn) [MeOPN→6-α-D-Galp-(1→OMP, 4-Methoxyphenyl 6-O-methyl-phosphoramidate-α-D-galactopyranoside]
[1]
  recognition by HS23/36 CPS-CRM197 conjugate antiserum: recognized; also recorded: strongly recognized; also recorded: detected
[2]
  recognition by HS4 CPS-CRM197 conjugate antiserum: elicited a response equivalent to anti-HS23/36 CRM197 conjugate; also recorded: strongly recognized
[3]
  recognition by HS1 CPS-CRM197 conjugate antiserum: reacted to MeOPN-6-Gal, although to a somewhat lesser extent; also recorded: weaker intensity
[4]
  recognition by HS3 CPS-CRM197 conjugate antiserum: did not react
